The record followed here is patent publication US8629158B2, “Azabicycloalkane-indole and azabicycloalkane-pyrrolo-pyridine MCH-1 antagonists, methods of making, and use thereof” (Albany Molecular Research, Inc., priority 2009, dated 2014).

One data set addresses human MCH-1 receptor (Homo sapiens (Human), UniProt Q99705). Kind of data set: Binding Assay for Human Melanin-Concentrating Hormone (MCH-1) Receptor (radioligand displacement, CHO-K1 membranes). The following applies: membranes from CHO-K1 cells expressing human MCH1 receptor; [3H]-labeled radioligand; Ki from IC50 by Cheng Prusoff; read-out: MCH-1 Ki. The protocol:
Evaluation of the affinity of compounds for the human MCH-1 receptor was accomplished using 4-(3,4,5-tritritiumbenzyloxy)-1-(1-(2-(pyrrolidin-1-yl)ethyl)-1H-indazol-5-yl)pyridin-2(1H)-one and membranes prepared from stable CHO-K1 cells expressing the human MCH1 receptor obtained from Euroscreen (Batch 1138). Cell membrane homogenates (8.92 μg protein) were incubated for 60 min at 25° C. with […] of the [^3H]-labeled compound in the absence or presence of the test compound in 50 mM Tris-HCl buffer, pH 7.4. Nonspecific binding was determined in the presence of 50 μM 1-(5-(4-cyanophenyl)bicyclo[3.1.0]hexan-2-yl)-3-(4-fluoro-3-(trifluoromethyl)phenyl)-1-(3-(4-methylpiperazin-1-yl)propyl)urea. Following incubation, the samples were filtered rapidly under vacuum through Skatron 11731 filters, pre-soaked in 0.5% polyethylenimine, and washed with ice-cold 50 mM Tris-HCl buffer, pH 7.4, (wash setting 9,9,0) using a Skatron cell harvester. The filters were counted for radioactivity in a liquid scintillation counter (Tri-Carb 2100TR, Packard) using a scintillation cocktail (Ultima Gold MV, Perkin Elmer).
The results are expressed as a percent inhibition of the control radioligand specific binding. The IC50 value (concentration causing a half-maximal inhibition of control specific binding) and Hill coefficient (nH) were determined by non-linear regression analysis of the competition curve using Hill equation curve fitting. The inhibition constant (Ki) was calculated from the Cheng Prusoff equation: (Ki=IC50/(1+(L/KD)), where L=concentration of radioligand in the assay, and KD=affinity of the radioligand for the receptor.
In general terms: Displacement assays read how much labelled ligand stays bound in the presence of the test substance.

Chain of human MCH-1 receptor (Q99705 whole entry): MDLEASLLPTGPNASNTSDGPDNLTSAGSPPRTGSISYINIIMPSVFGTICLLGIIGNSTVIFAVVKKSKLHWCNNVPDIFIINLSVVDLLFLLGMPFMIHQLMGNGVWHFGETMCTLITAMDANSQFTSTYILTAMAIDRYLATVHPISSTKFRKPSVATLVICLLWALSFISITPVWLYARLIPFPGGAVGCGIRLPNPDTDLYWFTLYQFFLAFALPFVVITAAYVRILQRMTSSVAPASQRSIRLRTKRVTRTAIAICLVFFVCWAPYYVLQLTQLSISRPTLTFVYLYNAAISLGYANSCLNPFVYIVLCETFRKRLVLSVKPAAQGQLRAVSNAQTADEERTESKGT

By Ki is commonly meant the dissociation constant of the complex between target and ligand, obtained from inhibition or displacement. The term melting point denotes the temperature of the solid-liquid transition. For `Cl.Cn1c2c(c3ccc(-n4ccc(OCc5ccccn5)cc4=O)cc31)C1CCC(C2)N1` (stereo not drawn) [Example 23, 1-(5-Methyl-6,7,8,9,10-hexahydro-7,10-iminocyclohept[b]indol-3-yl)-4-((pyridin-2-yl)methoxy)pyridin-2(1H)-one hydrochloride], the melting point lay in the range of 175 to 195 °C. For the same compound, the Ki at human MCH-1 receptor is 17 nM.

`CN1C2CCC1c1c(n(C)c3cc(-n4ccc(OCc5ccccc5)cc4=O)ccc13)C2.Cl` (stereo not drawn) [Example 26, 4-(Benzyloxy)-1-(5,11-dimethyl-5,6,7,8,9,10-hexahydro-7,10-iminocyclohept[b]indol-3-yl)pyridin-2(1H)-one hydrochloride] showed a melting point of 121 to 128 °C. In addition, the inhibition constant (Ki) at human MCH-1 receptor worked out at 9.7 nM.

The compound `CC(=O)N1C2CCC1c1c(n(C)c3cc(-n4ccc(OCc5ccccc5)cc4=O)ccc13)C2` (stereo not drawn) [Example 27, 1-(11-Acetyl-5-methyl-5,6,7,8,9,10-hexahydro-7,10-iminocyclohept[b]indol-3-yl)-4-(benzyloxy)pyridin-2(1H)-one] had a melting point of 91 to 96 °C. Besides, the Ki at human MCH-1 receptor was found to be 131 nM.

`CN1C2CCCC1c1c(n(C)c3cc(-n4ccc(OCc5ccccc5)cc4=O)ccc13)C2.Cl` (stereo not drawn) [Example 31, 4-(Benzyloxy)-1-(5,12-dimethyl-6,7,8,9,10,11-hexahydro-7,11-imino-5H-cyclooct[b]indol-3-yl)pyridin-2(1H)-one hydrochloride] returned a melting point of 161 to 180 °C. For the same compound, on human MCH-1 receptor, the Ki worked out at 14 nM.

`Cl.Cn1c2c(c3ccc(-n4ccc(OCc5ccc(F)cn5)cc4=O)nc31)C1CCCC(C2)N1` (stereo not drawn) [Example 40, 4-((5-Fluoropyridin-2-yl)methoxy)-1-(11-methyl-5,6,7,8,9,10-hexahydro-5,9-imino-11H-cycloocta[4,5]pyrrolo[2,3-b]pyridin-2-yl)pyridin-2(1H)-one hydrochloride] had a melting point of 170 to 180 °C. In addition, the Ki on human MCH-1 receptor stood at 49 nM.

For `Cl.Cn1c2c(c3ccc(-n4ccc(OCc5ccccc5)cc4=O)nc31)C1CCCC(C2)N1` (stereo not drawn) [Example 41, 4-(Benzyloxy)-1-(11-methyl-5,6,7,8,9,10-hexahydro-5,9-imino-11H-cycloocta[4,5]pyrrolo[2,3-b]pyridin-2-yl)pyridin-2(1H)-one hydrochloride], the melting point was 191 to 206 °C. For the same compound, the Ki at human MCH-1 receptor worked out at 30 nM.
